Data published in patent US8188139B2, “Heterocyclic-substituted phenyl methanones” (Hoffman-La Roche Inc., priority 2005, dated 2012).

target: T1, mGlyT-1b (Mus musculus, UniProt P28571); assay: Glycine uptake inhibition assay (mGlyT-1b); format: cell-based; conditions: inhibition of [3H]-glycine uptake in Flp-in-CHO cells transfected with mGlyT-1b cDNA; 20 min preincubation at 22° C.; read-out: IC50 (μM) at GlyT-1
T1 construct: host or cells: Flp-in-CHO
T1 sequence (P28571 1-651 isoform P28571-2): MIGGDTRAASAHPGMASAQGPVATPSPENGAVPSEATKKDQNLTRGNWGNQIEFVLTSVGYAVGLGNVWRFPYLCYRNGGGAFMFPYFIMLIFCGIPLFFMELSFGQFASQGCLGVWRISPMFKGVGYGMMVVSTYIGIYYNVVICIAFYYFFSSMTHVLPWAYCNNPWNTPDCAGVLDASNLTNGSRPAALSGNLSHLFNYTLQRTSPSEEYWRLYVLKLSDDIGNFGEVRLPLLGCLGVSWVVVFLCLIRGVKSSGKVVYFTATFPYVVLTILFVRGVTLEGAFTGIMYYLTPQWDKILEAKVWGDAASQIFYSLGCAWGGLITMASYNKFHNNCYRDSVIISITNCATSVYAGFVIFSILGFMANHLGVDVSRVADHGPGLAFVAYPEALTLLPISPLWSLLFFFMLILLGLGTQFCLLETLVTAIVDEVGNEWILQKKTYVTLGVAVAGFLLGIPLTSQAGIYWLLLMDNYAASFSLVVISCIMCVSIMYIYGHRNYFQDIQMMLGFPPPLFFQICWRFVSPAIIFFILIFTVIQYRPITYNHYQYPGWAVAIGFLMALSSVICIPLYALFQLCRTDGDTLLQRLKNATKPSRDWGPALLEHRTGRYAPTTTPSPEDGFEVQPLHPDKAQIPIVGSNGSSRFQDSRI
Procedure: DMEM complete medium: Nutrient mixture F-12 (Gibco Life-technologies), fetal bovine serum (FBS) 5%, (Gibco life technologies), Penicillin/Streptomycin1% (Gibco life technologies), Hygromycin 0.6 mg/ml (Gibco life technologies), Glutamine 1 mM Gibco life technologies)
Uptake buffer (UB): 150 mM NaCl, 10 mM Hepes-Tris, pH 7.4, 1 mM CaCl2, 2.5 mM KCl, 2.5 mM MgSO4, 10 mM (+) D-glucose.
Flp-in™-CHO (Invitrogen Cat n^o R758-07) cells stably transfected with mGlyT1b cDNA.
Glycine Uptake Inhibition Assay (mGlyT-1b)
On day 1 mammalian cells, (Flp-in™-CHO), transfected with mGlyT-1b cDNA, were plated at the density of 40,000 cells/well in complete F-12 medium, without hygromycin in 96-well culture plates. On day 2, the medium was aspirated, and the cells were washed twice with uptake buffer (UB). The cells were then incubated for 20 min at 22° C. with either (i) no potential competitor, (ii) 10 mM non-radioactive glycine, (iii) a concentration of a potential inhibitor. A range of concentrations of the potential inhibitor was used to generate data for calculating the concentration of inhibitor resulting in 50% of the effect (e.g. IC50, the concentration of the competitor inhibiting glycine uptake of 50%). A solution was then immediately added containing [^3H]-glycine 60 nM (11-16 Ci/mmol) and 25 μM non-radioactive glycine. The plates were incubated with gentle shaking, and the reaction was stopped by aspiration of the mixture and washing (three times) with ice-cold UB. The cells were lysed with scintillation liquid, shaken 3 hours, and the radioactivity in the cells was counted using a scintillation counter.

Row | Compound | IC50 [µM]
1 | CS(=O)(=O)c1ccc(-c2ccccc2)c(C(=O)N2Cc3cc(Cl)c(N4CCOCC4)cc3C2)c1 [Example 252, (5-Chloro-6-morpho-lin-4-yl-1,3-dihydro-isoindol-2-yl)-(4-methanesulfonyl-biphenyl-2-yl)-methanone] | 0.033
2 | CS(=O)(=O)c1ccc(-c2cccc(F)c2)c(C(=O)N2Cc3cc(Cl)c(N4CCOCC4)cc3C2)c1 [Example 255, (5-Chloro-6-morpho-lin-4-yl-1,3-dihydro-isoindol-2-yl)-(3′-fluoro-4-methane-sulfonyl-biphenyl-2-yl)-methanone] | 0.017
3 | CS(=O)(=O)c1ccc(-c2ccc(F)cc2)c(C(=O)N2Cc3cc(Cl)c(N4CCOCC4)cc3C2)c1 [Example 256, (5-Chloro-6-morpho-lin-4-yl-1,3-dihydro-isoindol-2-yl)-(4′-fluoro-4-methane-sulfonyl-biphenyl-2-yl)-methanone] | 0.032
4 | CC(C)Oc1ccc(S(C)(=O)=O)cc1C(=O)N1Cc2ccc(C3CCOCC3)cc2C1 [Example 268, (2-Isopropoxy-5-methanesulfonyl-phenyl)-[5-(tetrahydro-pyran-4-yl)-1,3-dihydro-isoindol-2-yl]-methanone] | 0.028
5 | C[C@H](Oc1ccc(S(C)(=O)=O)cc1C(=O)N1Cc2ccc(C3CCOCC3)cc2C1)C(F)(F)F [Example 269, [5-Methanesulfonyl-2-((S)-2,2,2-trifluoro-1-methyl-ethoxy)-phenyl]-[5-(tetrahydro-pyran-4-yl)-1,3-dihydro-isoindol-2-yl]-methanone] | 0.014
6 | CC(C)COc1ccc(S(C)(=O)=O)cc1C(=O)N1Cc2ccc(C3CCOCC3)cc2C1 [Example 270, (2-Isobutoxy-5-methanesulfonyl-phenyl)-[5-(tetrahydro-pyran-4-yl)-1,3-dihydro-isoindol-2-yl]-methanone] | 0.035
7 | CS(=O)(=O)c1ccc(OCC2CC2)c(C(=O)N2Cc3ccc(C4CCOCC4)cc3C2)c1 [Example 271, (2-Cyclopropyl-methoxy-5-methane-sulfonyl-phenyl)-[5-(tetrahydro-pyran-4-yl)-1,3-dihydro-isoindol-2-yl]-methanone] | 0.029
8 | CS(=O)(=O)c1ccc(OCC2CCC2)c(C(=O)N2Cc3ccc(C4CCOCC4)cc3C2)c1 [Example 272, (2-Cyclobutyl-methoxy-5-methane-sulfonyl-phenyl)-[5-(tetrahydro-pyran-4-yl)-1,3-dihydro-isoindol-2-yl]-methanone] | 0.034
9 | CC(C)(C)COc1ccc(S(C)(=O)=O)cc1C(=O)N1Cc2ccc(C3CCOCC3)cc2C1 [Example 273, [2-(2,2-Dimethyl-propoxy)-5-methane-sulfonyl-phenyl]-[5-(tetrahydro-pyran-4-yl)-1,3-dihydro-isoindol-2-yl]-methanone] | 0.047
10 | CS(=O)(=O)c1ccc(-c2ccc(F)cc2)c(C(=O)N2Cc3ccc(C4CCOCC4)cc3C2)c1 [Example 283, (4′-Fluoro-4-methanesulfonyl-biphenyl-2-yl)-[5-(tetrahydro-pyran-4-yl)-1,3-dihydro-isoindol-2-yl]-methanone] | 0.016
11 | C[C@H](Oc1ccc(S(C)(=O)=O)cc1C(=O)N1Cc2ccc(N3CCCC(F)(F)C3)cc2C1)C(F)(F)F [Example 287, [5-(3,3-Difluoro-piperidin-1-yl)-1,3-dihydro-isoindol-2-yl]-[5-methanesulfonyl-2-((S)-2,2,2-trifluoro-1-methyl-ethoxy)-phenyl]-methanone] | 0.043
12 | C[C@H](Oc1ccc(S(C)(=O)=O)cc1C(=O)N1Cc2ccc(CC(F)(F)F)cc2C1)C(F)(F)F [Example 290, [5-Methanesulfonyl-2-((S)-2,2,2-trifluoro-1-methyl-ethoxy)-phenyl]-[5-(2,2,2-tri-fluoro-ethyl)-1,3-dihydro-isoindol-2-yl]-methanone] | 0.022
13 | C[C@H](Oc1ccc(S(C)(=O)=O)cc1C(=O)N1Cc2ccc(N3[C@@H]4CC[C@H]3COC4)cc2C1)C(F)(F)F [Example 295, [5-Methanesulfonyl-2-((S)-2,2,2-trifluoro-1-methyl-ethoxy)-phenyl]-[(1R,5S)-5-(3-oxa-8-aza-bicyclo[3.2.1]oct-8-yl)-1,3-dihydro-isoindol-2-yl]-methanone] | 0.04
14 | Cc1cc2c(cc1C1CCOCC1)CN(C(=O)c1cc(S(C)(=O)=O)ccc1O[C@@H](C)C(F)(F)F)C2 [Example 300] | 0.017
15 | C[C@H](Oc1ccc(S(C)(=O)=O)cc1C(=O)N1Cc2ccc(C3CCOC3)cc2C1)C(F)(F)F (stereo partly drawn) [Example 304, [5-Methanesulfonyl-2-((S)-2,2,2-trifluoro-1-methyl-ethoxy)-phenyl]-[5-(tetra-hydro-furan-3-yl)-1,3-dihydro-isoindol-2-yl]-methanone] | 0.008
16 | C[C@H](Oc1ccc(S(C)(=O)=O)cc1C(=O)N1Cc2cc(Cl)c(C3CCOCC3)cc2C1)C(F)(F)F [Example 305, [5-Chloro-6-(tetra-hydro-pyran-4-yl)-1,3-dihydro-isoindol-2-yl]-[5-methane-sulfonyl-2-((S)-2,2,2-trifluoro-1-methyl-ethoxy)-phenyl]-methanone] | 0.037
17 | CCc1cc2c(cc1C1CCOCC1)CN(C(=O)c1cc(S(C)(=O)=O)ccc1O[C@@H](C)C(F)(F)F)C2 [Example 306, [5-Ethyl-6-(tetrahydro-pyran-4-yl)-1,3-dihydro-isoindol-2-yl]-[5-methanesulfonyl-2-((S)-2,2,2-trifluoro-1-methyl-ethoxy)-phenyl]-methanone] | 0.087
18 | C[C@H](Oc1ccc(S(C)(=O)=O)cc1C(=O)N1Cc2ccc(-c3ccncc3)cc2C1)C(F)(F)F [Example 315, [5-Methanesulfonyl-2-((S)-2,2,2-trifluoro-1-methyl-ethoxy)-phenyl]-(5-pyridin-4-yl-1,3-dihydro-isoindol-2-yl)-methanone] | 0.017
19 | C[C@H](Oc1ccc(S(C)(=O)=O)cc1C(=O)N1Cc2ccc(-c3cccnc3)cc2C1)C(F)(F)F [Example 317] | 0.024
20 | C[C@H](Oc1ccc(S(C)(=O)=O)cc1C(=O)N1Cc2cnc(-c3ccc(F)cc3)cc2C1)C(F)(F)F [Example 321, [6-(4-Fluoro-phenyl)-1,3-dihydro-pyrrolo[3,4-c]pyridin-2-yl]-[5-methanesulfonyl-2-((S)-2,2,2-trifluoro-1-methyl-ethoxy)-phenyl]-methanone] | 0.034
21 | C[C@H](Oc1ccc(S(C)(=O)=O)cc1C(=O)N1Cc2cc(-c3ccc(F)cc3)cnc2C1)C(F)(F)F [Example 322, [3-(4-Fluoro-phenyl)-5,7-dihydro-pyrrolo[3,4-b]pyridin-6-yl]-[5-methanesulfonyl-2-((S)-2,2,2-trifluoro-1-methyl-ethoxy)-phenyl]-methanone] | 0.012
22 | C[C@H](Oc1ccc(S(C)(=O)=O)cc1C(=O)N1Cc2ccc(-c3ccccc3)cc2C1)C(F)(F)F [Example 323, [5-Methanesulfonyl-2-((S)-2,2,2-trifluoro-1-methyl-ethoxy)-phenyl]-(5-phenyl-1,3-dihydro-isoindol-2-yl)-methanone] | 0.013
23 | C[C@H](Oc1ccc(S(C)(=O)=O)cc1C(=O)N1Cc2ccc(-c3ccccc3Cl)cc2C1)C(F)(F)F [Example 324, [5-(2-Chloro-phenyl)-1,3-dihydro-isoindol-2-yl]-[5-methanesulfonyl-2-(2,2,2-trifluoro-1-methyl-ethoxy)-phenyl]-methanone] | 0.045
24 | C[C@H](Oc1ccc(S(C)(=O)=O)cc1C(=O)N1Cc2ccc(-c3ccsc3)cc2C1)C(F)(F)F [Example 330, [5-Methanesulfonyl-2-(2,2,2-trifluoro-1-methyl-ethoxy)-phenyl]-(5-thiophen-3-yl-1,3-dihydro-isoindol-2-yl)-methanone] | 0.02
25 | Cc1csc(-c2ccc3c(c2)CN(C(=O)c2cc(S(C)(=O)=O)ccc2O[C@@H](C)C(F)(F)F)C3)c1 [Example 331, [5-Methanesulfonyl-2-(2,2,2-trifluoro-1-methyl-ethoxy)-phenyl]-[5-(4-methyl-thiophen-2-yl)-1,3-dihydro-isoindol-2-yl]-methanone] | 0.022
